From ChEMBL document CHEMBL3885881, “DrugMatrix”

Species: Rattus norvegicus
Assay: DrugMatrix - Regimen: Daily Repeat
Type: toxicity, organism-based, Sprague-Dawley
Design: regimen Daily Repeat, gender Male, age 6-8 weeks
Details: in vivo, po, route oral GAVAGE, vehicle .5 % CMC; for ABSOLUTE BASOPHIL / ABSOLUTE EOSINOPHIL / ABSOLUTE LYMPHOCYTE / ABSOLUTE MONOCYTE / ABSOLUTE SEGMENTED NEUTROPHIL / BASOPHIL / EOSINOPHIL / ERYTHROCYTE COUNT / HEMATOCRIT / HEMOGLOBIN / LEUKOCYTE COUNT / LYMPHOCYTE / MEAN CORPUSCULAR HEMOGLOBIN / MEAN CORPUSCULAR HEMOGLOBIN CONCENTRATION / MEAN CORPUSCULAR VOLUME / MONOCYTE / NEUTROPHIL / NUCLEATED RED BLOOD CELLS / PLATELET COUNT: tissue Blood; for ALANINE AMINOTRANSFERASE / ALBUMIN / ASPARTATE AMINOTRANSFERASE / BLOOD UREA NITROGEN / CARBON DIOXIDE / CHLORIDE / CREATINE PHOSPHOKINASE / CREATININE / GLUCOSE / LACTATE DEHYDROGENASE / LIPASE / PHOSPHORUS / POTASSIUM / SODIUM / TOTAL BILIRUBIN / TOTAL PROTEIN: tissue Plasma
[1] = 16 mg/kg, 72 h, dose level Low, time 3 day
[2] = 16 mg/kg, 120 h, dose level Low, time 5 day
[3] = 2500 mg/kg, 72 h, dose level High, time 3 day
[4] = 2500 mg/kg, 120 h, dose level High, time 5 day

Structure (SMILES): CC1=C(C(=O)O)N2C(=O)[C@@H](NC(=O)[C@H](N)c3ccccc3)[C@H]2SC1 [CEPHALEXIN ANHYDROUS]
- ABSOLUTE BASOPHIL [1]: 0 CELLS/uL
- ABSOLUTE EOSINOPHIL [1]: 0 CELLS/uL
- ABSOLUTE LYMPHOCYTE [1]: 17436 CELLS/uL
- ABSOLUTE MONOCYTE [1]: 124 CELLS/uL
- ABSOLUTE SEGMENTED NEUTROPHIL [1]: 706.67 CELLS/uL
- BASOPHIL [1]: 0%
- EOSINOPHIL [1]: 0%
- ERYTHROCYTE COUNT [1]: 5.81 x10E6/uL
- HEMATOCRIT [1]: 35.97%
- HEMOGLOBIN [1]: 13.93 G/DL
- LEUKOCYTE COUNT [1]: 18.27 x10E3/uL
- LYMPHOCYTE [1]: 95.33%
- MEAN CORPUSCULAR HEMOGLOBIN [1]: 24.03 pg
- MEAN CORPUSCULAR HEMOGLOBIN CONCENTRATION [1]: 38.8 G/DL
- MEAN CORPUSCULAR VOLUME [1]: 61.97 fL
- MONOCYTE [1]: 0.67%
- NEUTROPHIL [1]: 4%
- NUCLEATED RED BLOOD CELLS [1]: 0 /100WBC
- PLATELET COUNT [1]: 1279 x10E3/uL
- ALANINE AMINOTRANSFERASE [1]: 50.33 u/L
- ALBUMIN [1]: 4.13 G/DL
- ASPARTATE AMINOTRANSFERASE [1]: 86.67 u/L
- BLOOD UREA NITROGEN [1]: 14.33 mg/dL
- CARBON DIOXIDE [1]: 30 mmol/L
- CHLORIDE [1]: 101 MEQ/L
- CREATINE PHOSPHOKINASE [1]: 208 u/L
- CREATININE [1]: 0.23 mg/dL
- GLUCOSE [1]: 163.33 mg/dL
- LACTATE DEHYDROGENASE [1]: 208.33 u/L
- LIPASE [1]: 9 u/L
- PHOSPHORUS [1]: 13.27 mg/dL
- POTASSIUM [1]: 7.33 MEQ/L
- SODIUM [1]: 146.17 MEQ/L
- TOTAL BILIRUBIN [1]: 0.17 mg/dL
- TOTAL PROTEIN [1]: 5.9 G/DL
- ABSOLUTE BASOPHIL [2]: 0 CELLS/uL
- ABSOLUTE EOSINOPHIL [2]: 0 CELLS/uL
- ABSOLUTE LYMPHOCYTE [2]: 13406.33 CELLS/uL
- ABSOLUTE MONOCYTE [2]: 44 CELLS/uL
- ABSOLUTE SEGMENTED NEUTROPHIL [2]: 716.33 CELLS/uL
- BASOPHIL [2]: 0%
- EOSINOPHIL [2]: 0%
- ERYTHROCYTE COUNT [2]: 5.62 x10E6/uL
- HEMATOCRIT [2]: 33.87%
- HEMOGLOBIN [2]: 13.33 G/DL
- LEUKOCYTE COUNT [2]: 14.17 x10E3/uL
- LYMPHOCYTE [2]: 94.67%
- MEAN CORPUSCULAR HEMOGLOBIN [2]: 23.63 pg
- MEAN CORPUSCULAR HEMOGLOBIN CONCENTRATION [2]: 39.33 G/DL
- MEAN CORPUSCULAR VOLUME [2]: 60.17 fL
- MONOCYTE [2]: 0.33%
- NEUTROPHIL [2]: 5%
- NUCLEATED RED BLOOD CELLS [2]: 0 /100WBC
- PLATELET COUNT [2]: 900 x10E3/uL
- ALANINE AMINOTRANSFERASE [2]: 49 u/L
- ALBUMIN [2]: 4.2 G/DL
- ASPARTATE AMINOTRANSFERASE [2]: 98 u/L
- BLOOD UREA NITROGEN [2]: 14.67 mg/dL
- CARBON DIOXIDE [2]: 24 mmol/L
- CHLORIDE [2]: 103.33 MEQ/L
- CREATINE PHOSPHOKINASE [2]: 652.67 u/L
- CREATININE [2]: 0.25 mg/dL
- GLUCOSE [2]: 200.67 mg/dL
- LACTATE DEHYDROGENASE [2]: 425.67 u/L
- LIPASE [2]: 9 u/L
- PHOSPHORUS [2]: 13.2 mg/dL
- POTASSIUM [2]: 6.1 MEQ/L
- SODIUM [2]: 146.5 MEQ/L
- TOTAL BILIRUBIN [2]: 0.17 mg/dL
- TOTAL PROTEIN [2]: 6.13 G/DL
- ABSOLUTE BASOPHIL [3]: 0 CELLS/uL
- ABSOLUTE EOSINOPHIL [3]: 47.67 CELLS/uL
- ABSOLUTE LYMPHOCYTE [3]: 14295 CELLS/uL
- ABSOLUTE MONOCYTE [3]: 55 CELLS/uL
- ABSOLUTE SEGMENTED NEUTROPHIL [3]: 435.67 CELLS/uL
- BASOPHIL [3]: 0%
- EOSINOPHIL [3]: 0.33%
- ERYTHROCYTE COUNT [3]: 5.55 x10E6/uL
- HEMATOCRIT [3]: 35.7%
- HEMOGLOBIN [3]: 14 G/DL
- LEUKOCYTE COUNT [3]: 14.83 x10E3/uL
- LYMPHOCYTE [3]: 96.33%
- MEAN CORPUSCULAR HEMOGLOBIN [3]: 25.23 pg
- MEAN CORPUSCULAR HEMOGLOBIN CONCENTRATION [3]: 39.2 G/DL
- MEAN CORPUSCULAR VOLUME [3]: 64.3 fL
- MONOCYTE [3]: 0.33%
- NEUTROPHIL [3]: 3%
- NUCLEATED RED BLOOD CELLS [3]: 0 /100WBC
- PLATELET COUNT [3]: 1231 x10E3/uL
- ALANINE AMINOTRANSFERASE [3]: 67.33 u/L
- ALBUMIN [3]: 3.93 G/DL
- ASPARTATE AMINOTRANSFERASE [3]: 82.67 u/L
- BLOOD UREA NITROGEN [3]: 16 mg/dL
- CARBON DIOXIDE [3]: 31.67 mmol/L
- CHLORIDE [3]: 100.33 MEQ/L
- CREATINE PHOSPHOKINASE [3]: 209 u/L
- CREATININE [3]: 0.17 mg/dL
- GLUCOSE [3]: 140 mg/dL
- LACTATE DEHYDROGENASE [3]: 154.67 u/L
- LIPASE [3]: 9 u/L
- PHOSPHORUS [3]: 10.93 mg/dL
- POTASSIUM [3]: 6.36 MEQ/L
- SODIUM [3]: 145.43 MEQ/L
- TOTAL BILIRUBIN [3]: 0.2 mg/dL
- TOTAL PROTEIN [3]: 5.67 G/DL
- ABSOLUTE BASOPHIL [4]: 0 CELLS/uL
- ABSOLUTE EOSINOPHIL [4]: 48.67 CELLS/uL
- ABSOLUTE LYMPHOCYTE [4]: 11635.33 CELLS/uL
- ABSOLUTE MONOCYTE [4]: 0 CELLS/uL
- ABSOLUTE SEGMENTED NEUTROPHIL [4]: 2649.33 CELLS/uL
- BASOPHIL [4]: 0%
- EOSINOPHIL [4]: 0.33%
- ERYTHROCYTE COUNT [4]: 5.85 x10E6/uL
- HEMATOCRIT [4]: 35.6%
- HEMOGLOBIN [4]: 13.87 G/DL
- LEUKOCYTE COUNT [4]: 14.33 x10E3/uL
- LYMPHOCYTE [4]: 81.67%
- MEAN CORPUSCULAR HEMOGLOBIN [4]: 23.8 pg
- MEAN CORPUSCULAR HEMOGLOBIN CONCENTRATION [4]: 38.93 G/DL
- MEAN CORPUSCULAR VOLUME [4]: 61.07 fL
- MONOCYTE [4]: 0%
- NEUTROPHIL [4]: 18%
- NUCLEATED RED BLOOD CELLS [4]: 0 /100WBC
- PLATELET COUNT [4]: 1275.33 x10E3/uL
- ALANINE AMINOTRANSFERASE [4]: 101.33 u/L
- ALBUMIN [4]: 4.23 G/DL
- ASPARTATE AMINOTRANSFERASE [4]: 94.67 u/L
- BLOOD UREA NITROGEN [4]: 18.33 mg/dL
- CARBON DIOXIDE [4]: 28 mmol/L
- CHLORIDE [4]: 105.33 MEQ/L
- CREATINE PHOSPHOKINASE [4]: 302 u/L
- CREATININE [4]: 0.24 mg/dL
- GLUCOSE [4]: 174.67 mg/dL
- LACTATE DEHYDROGENASE [4]: 98.67 u/L
- LIPASE [4]: 9.67 u/L
- PHOSPHORUS [4]: 11.77 mg/dL
- POTASSIUM [4]: 5.92 MEQ/L
- SODIUM [4]: 150.03 MEQ/L
- TOTAL BILIRUBIN [4]: 0.17 mg/dL
- TOTAL PROTEIN [4]: 5.97 G/DL
